From patent US12509444B2, “Compounds and methods for CD73 modulation and indications therefor” (Plexxikon Inc., priority 2019, dated 2025) come the findings set out here.

For one assay, the target named is T1, human CD73 (Homo sapiens, UniProt P21589).
T1 construct: expressed in transfected cells
T1 sequence (P21589 27-549): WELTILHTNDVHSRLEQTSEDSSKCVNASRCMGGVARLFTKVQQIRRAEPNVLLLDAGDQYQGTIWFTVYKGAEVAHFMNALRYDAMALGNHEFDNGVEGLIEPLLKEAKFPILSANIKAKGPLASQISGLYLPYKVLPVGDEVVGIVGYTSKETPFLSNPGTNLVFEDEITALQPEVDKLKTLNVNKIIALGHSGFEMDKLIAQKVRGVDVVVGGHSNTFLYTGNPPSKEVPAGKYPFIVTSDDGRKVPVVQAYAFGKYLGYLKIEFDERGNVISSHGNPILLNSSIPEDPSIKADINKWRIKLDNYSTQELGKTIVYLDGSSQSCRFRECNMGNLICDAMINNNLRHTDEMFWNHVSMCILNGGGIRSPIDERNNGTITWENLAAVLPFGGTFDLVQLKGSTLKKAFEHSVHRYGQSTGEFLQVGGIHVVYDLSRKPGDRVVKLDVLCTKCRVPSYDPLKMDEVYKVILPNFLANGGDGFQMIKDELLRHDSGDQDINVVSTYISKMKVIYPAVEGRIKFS
Kind of assay: Inhibitor activity against CD73 in cell based assay (CD73 expressing CHO-K1 cells). Particulars: CHO-K1 cells expressing human CD73, 150 μM AMP, 4 hours of incubation; read-out: CHO-K1 CELL VARIANT: CD73 IC50. In outline: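 Stably transfected CHO-K1 cells expressing human CD73 (1×10^4/well) incubated 4 h with compound (8-point 1:3 titration, top 10 μM final, 0.2% DMSO) and 150 μM AMP. Residual AMP in supernatant measured by CellTiter-Glo luminescence with 1 μM ATP after 30 min at room temperature; IC50 by nonlinear regression of percent inhibition vs high/low controls.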

Assay [1] addresses T2, Human CD73 (amino acid residues 27-549) (Homo sapiens, UniProt P21589).
T2 construct: Human CD73 (amino acid residues 27-549); His tag (N); made in house; host or cells: E. coli
T2 sequence (P21589 27-549): T1 sequence (P21589 27-549)
Kind of assay: CD73 enzymatic assay (luciferase-based indirect assay, CellTiter-Glo). Particulars: 0.4 nM CD73, 150 μM AMP, 1 hour at room temperature. It counts as biochemical. In outline: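 His-tagged human CD73 (27-549) from E. coli, 0.4 nM, with 150 μM AMP in 50 mM HEPES pH 7.4, 0.01% Tween 20; 1 h at room temperature. AMP remaining read by CellTiter-Glo 2.0 luminescence with 1 μM final ATP after 30 min. IC50 from nonlinear regression of % inhibition.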

For `O=C(O)Cn1ncc(N2CC[C@@H](OC(=O)NC3CCC(F)(F)CC3)C2)cc1=O` [P-0283, (R)-2-(4-(3-(((4,4-difluorocyclohexyl)carbamoyl)oxy)pyrrolidin-1-yl)-6-oxopyridazin-1(6H)-yl)acetic acid], the IC50 lay within 10 to 100 µM at human CD73 and 100 to 1000 µM in assay [1].

On to `O=C(NC1CCC(F)(F)CC1)O[C@@H]1CCN(c2cnn(CC(O)C(F)(F)F)c(=O)c2Cl)C1` (stereo partly drawn) [P-0284, (3R)-1-(5-chloro-6-oxo-1-(3,3,3-trifluoro-2-hydroxypropyl)-1,6-dihydropyridazin-4-yl)pyrrolidin-3-yl (4,4-difluorocyclohexyl)carbamate], for which the IC50 (at human CD73; in assay [1]) was 0.001 to 10 µM throughout.

As to `NC(=O)Cn1ncc(N2CC[C@@H](OC(=O)NC3CCC(F)(F)CC3)C2)c(Cl)c1=O` [P-0285, (R)-1-(1-(2-amino-2-oxoethyl)-5-chloro-6-oxo-1,6-dihydropyridazin-4-yl)pyrrolidin-3-yl (4,4-difluorocyclohexyl)carbamate], the IC50 lay within 10 to 100 µM on human CD73 and 0.001 to 10 µM in assay [1].

`N#CCn1ncc(N2CC[C@@H](OC(=O)NC3CCC(F)(F)CC3)C2)c(Cl)c1=O` [P-0286, (R)-1-(5-chloro-1-(cyanomethyl)-6-oxo-1,6-dihydropyridazin-4-yl)pyrrolidin-3-yl (4,4-difluorocyclohexyl)carbamate]: the IC50 at human CD73 was 10 to 100 µM; in assay [1], 0.001 to 10 µM.

Take `O=C(NC1CCC(F)(F)CC1)O[C@@H]1CCN(c2cnn(CCO)c(=O)c2Cl)C1` [P-0287, (R)-1-(5-chloro-1-(2-hydroxyethyl)-6-oxo-1,6-dihydropyridazin-4-yl)pyrrolidin-3-yl (4,4-difluorocyclohexyl)carbamate]: the 50% inhibitory concentration (IC50) (on human CD73; in assay [1]) was 0.001 to 10 µM throughout.

Consider `C[C@@H]1CCCC[C@@H]1NC(=O)O[C@@H]1CCN(c2cn[nH]c(=O)c2Cl)C1` [P-0288, (R)-1-(5-chloro-6-oxo-1,6-dihydropyridazin-4-yl)pyrrolidin-3-yl ((1S,2R)-2-methylcyclohexyl)carbamate], for which the half-inhibitory concentration (IC50) (at human CD73; in assay [1]) was 0.001 to 10 µM in each case.

Take `Cn1ncc(N2CC[C@@H](OC(=O)N[C@H]3CC[C@H](NS(=O)(=O)c4ccc(F)cc4F)CC3)C2)c(Cl)c1=O` [P-0289, (R)-1-(5-chloro-1-methyl-6-oxo-1,6-dihydropyridazin-4-yl)pyrrolidin-3-yl ((1r,4R)-4-((2,4-difluorophenyl)sulfonamido)cyclohexyl)carbamate]: the IC50 (at human CD73; in assay [1]) was 0.001 to 10 µM in each case.

Take `O=C(N[C@H]1CC[C@@H](NC(=O)C2CCC2)CC1)O[C@@H]1CCN(c2cn[nH]c(=O)c2Cl)C1` [P-0290, (R)-1-(5-chloro-6-oxo-1,6-dihydropyridazin-4-yl)pyrrolidin-3-yl ((1s,4S)-4-(cyclobutanecarboxamido)cyclohexyl)carbamate]: the IC50 (at human CD73; in assay [1]) was 0.001 to 10 µM in each case.

`O=C(N[C@H]1CC[C@H](NS(=O)(=O)C2CCC2)CC1)O[C@@H]1CCN(c2cn[nH]c(=O)c2Cl)C1` [P-0291, (R)-1-(5-chloro-6-oxo-1,6-dihydropyridazin-4-yl)pyrrolidin-3-yl ((1r,4R)-4-(cyclobutanesulfonamido)cyclohexyl)carbamate]: the IC50 (on human CD73; in assay [1]) was 0.001 to 10 µM in each case.

In the case of `O=C(N[C@H]1CC[C@H](NS(=O)(=O)c2ccc(Cl)cc2)CC1)O[C@@H]1CCN(c2cn[nH]c(=O)c2Cl)C1` [P-0292, (R)-1-(5-chloro-6-oxo-1,6-dihydropyridazin-4-yl)pyrrolidin-3-yl ((1r,4R)-4-((4-chlorophenyl)sulfonamido)cyclohexyl)carbamate], the IC50 (on human CD73; in assay [1]) was 0.001 to 10 µM each time.

On to `Cc1ccc(S(=O)(=O)N[C@H]2CC[C@H](NC(=O)O[C@@H]3CCN(c4cn[nH]c(=O)c4Cl)C3)CC2)cc1` [P-0293, (R)-1-(5-chloro-6-oxo-1,6-dihydropyridazin-4-yl)pyrrolidin-3-yl ((1r,4R)-4-((4-methylphenyl)sulfonamido)cyclohexyl)carbamate], for which the IC50 (on human CD73; in assay [1]) was 0.001 to 10 µM each time.

As for `O=C(N[C@H]1CC[C@H](NS(=O)(=O)c2cccc(F)c2)CC1)O[C@@H]1CCN(c2cn[nH]c(=O)c2Cl)C1` [P-0294, (R)-1-(5-chloro-6-oxo-1,6-dihydropyridazin-4-yl)pyrrolidin-3-yl ((1r,4R)-4-((3-fluorophenyl)sulfonamido)cyclohexyl)carbamate], the IC50 (at human CD73; in assay [1]) was 0.001 to 10 µM in each case.

In the case of `O=C(N[C@H]1CC[C@H](NS(=O)(=O)c2cccnc2)CC1)O[C@@H]1CCN(c2cn[nH]c(=O)c2Cl)C1` [P-0295, (R)-1-(5-chloro-6-oxo-1,6-dihydropyridazin-4-yl)pyrrolidin-3-yl ((1r,4R)-4-(pyridine-3-sulfonamido)cyclohexyl) carbamate], the IC50 (at human CD73; in assay [1]) was 0.001 to 10 µM each time.

As for `O=C(N[C@H]1CC[C@H](NS(=O)(=O)c2ccc3ncsc3c2)CC1)O[C@@H]1CCN(c2cn[nH]c(=O)c2Cl)C1` [P-0296, (R)-1-(5-chloro-6-oxo-1,6-dihydropyridazin-4-yl)pyrrolidin-3-yl ((1r,4R)-4-(benzo[d]thiazole-6-sulfonamido)cyclohexyl) carbamate], the IC50 (at human CD73; in assay [1]) was 0.001 to 10 µM throughout.

Regarding `O=C(N[C@H]1CC[C@H](NS(=O)(=O)c2c(F)cccc2F)CC1)O[C@@H]1CCN(c2cn[nH]c(=O)c2Cl)C1` [P-0297, (R)-1-(5-chloro-6-oxo-1,6-dihydropyridazin-4-yl)pyrrolidin-3-yl ((1r,4R)-4-((2,6-difluorophenyl)sulfonamido)cyclohexyl)carbamate], the IC50 (on human CD73; in assay [1]) was 0.001 to 10 µM each time.

As for `O=C(N[C@H]1CC[C@H](NS(=O)(=O)c2cc(F)ccc2F)CC1)O[C@@H]1CCN(c2cn[nH]c(=O)c2Cl)C1` [P-0298, (R)-1-(5-chloro-6-oxo-1,6-dihydropyridazin-4-yl)pyrrolidin-3-yl ((1r,4R)-4-((2,5-difluorophenyl)sulfonamido)cyclohexyl)carbamate], the IC50 (on human CD73; in assay [1]) was 0.001 to 10 µM each time.

`O=C(N[C@H]1CC[C@H](NS(=O)(=O)c2ccsc2)CC1)O[C@@H]1CCN(c2cn[nH]c(=O)c2Cl)C1` [P-0299, (R)-1-(5-chloro-6-oxo-1,6-dihydropyridazin-4-yl)pyrrolidin-3-yl ((1r,4R)-4-(thiophene-3-sulfonamido)cyclohexyl) carbamate]: the concentration for half-maximal inhibition (IC50) (at human CD73; in assay [1]) was 0.001 to 10 µM throughout.

Consider `O=C(N[C@H]1CC[C@H](NS(=O)(=O)c2cccs2)CC1)O[C@@H]1CCN(c2cn[nH]c(=O)c2Cl)C1` [P-0300, (R)-1-(5-chloro-6-oxo-1,6-dihydropyridazin-4-yl)pyrrolidin-3-yl ((1r,4R)-4-(thiophene-2-sulfonamido)cyclohexyl) carbamate], for which the IC50 (at human CD73; in assay [1]) was 0.001 to 10 µM throughout.

As for `O=C(N[C@H]1CC[C@H](NS(=O)(=O)c2ccc(Cl)s2)CC1)O[C@@H]1CCN(c2cn[nH]c(=O)c2Cl)C1` [P-0301, (R)-1-(5-chloro-6-oxo-1,6-dihydropyridazin-4-yl)pyrrolidin-3-yl ((1r,4R)-4-((5-chlorothiophene)-2-sulfonamido)cyclohexyl) carbamate], the 50% inhibitory concentration (IC50) (on human CD73; in assay [1]) was 0.001 to 10 µM each time.
